From US20230391774A1, “Novel Compounds” (AC Immune SA, priority 2020, published 2023)

Molecular target: T1, flTau aggregates (longest isoform of human Tau, 2N4R) (Homo sapiens, UniProt P10636)
T1 construct: 35 μM of recombinant full-length (fl) Tau in phosphate-buffered saline (PBS) were aggregated; purchased Biotechne; host or cells: bacteria
Experiment: Full-length Tau (flTau) disaggregation assay by Thioflavin T (ThT)
Type: biochemical
Settings: ThT fluorescence; 60 nM flTau aggregates, 30 minutes at RT; read-out: flTau disaggregation EC50
Procedure: Full-Length Tau (flTau) Disaggregation Assay by Thioflavin T (ThT)
The longest isoform of human Tau (2N4R; 441 amino acids) was expressed in bacteria and purified (Biotechne). For the Tau disaggregation assay by ThT, 35 μM of recombinant full-length (fl) Tau in phosphate-buffered saline (PBS) were aggregated for 72 hours at 37° C. in presence of 35 μM of heparin (Sigma-Aldrich) and 10 mM of […] (Sigma-Aldrich) under shaking at 1000 RPM. Compound 1 was dissolved in anhydrous dimethyl sulfoxide (DMSO, Sigma-Aldrich) to reach a concentration of 2.5 mM. flTau aggregates and serial dilutions of compound 1 were mixed together in PBS (volume 50 μL) to a final concentration of 60 nM of flTau aggregates and from 20 to 0.0012 μM of Compound 1. The mixture was incubated for 30 minutes at room temperature (RT), then 40 μL of this mixture were transferred into a black 384-well plate assay (Perkin-Elmer) and mixed with 10 μL of 20 μM ThT in 250 mM glycine (both from Sigma-Aldrich) in PBS. Fluorescence (relative fluorescence units; RFU) was measured in monoplicate or duplicate on a Tecan reader (excitation: 440 nm; emission: 485 nm). Percentage of flTau disaggregation was then calculated and the half maximal effective concentration (EC50) was determined using GraphPad Prism version 8 (GraphPad Software) assuming a one-binding site fitting model, see Table 3 and Table 4.

T1 sequence (P10636 1-441 isoform P10636-8): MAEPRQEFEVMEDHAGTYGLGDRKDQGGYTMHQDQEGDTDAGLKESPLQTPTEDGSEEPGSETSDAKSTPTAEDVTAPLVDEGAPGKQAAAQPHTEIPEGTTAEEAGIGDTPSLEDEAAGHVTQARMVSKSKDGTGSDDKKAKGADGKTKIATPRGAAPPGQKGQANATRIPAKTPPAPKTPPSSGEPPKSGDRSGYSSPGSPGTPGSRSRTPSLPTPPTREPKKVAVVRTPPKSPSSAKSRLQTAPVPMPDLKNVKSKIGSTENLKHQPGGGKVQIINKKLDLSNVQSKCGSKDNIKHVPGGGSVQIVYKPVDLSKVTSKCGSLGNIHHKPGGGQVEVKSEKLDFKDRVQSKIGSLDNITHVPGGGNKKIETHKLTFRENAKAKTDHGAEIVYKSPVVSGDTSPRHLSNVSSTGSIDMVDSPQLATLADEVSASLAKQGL

EC50 [nM]	Structure (SMILES)
1000 to 10000	Cn1cc(C2CCN(c3cc4nc(N5CCOCC5)oc4cn3)C2)c2cc(F)cnc21 (stereo not drawn) [Example 87, 6-(3-(5-fluoro-1-methyl-1H-pyrrolo[2,3-b]pyridin-3-yl)pyrrolidin-1-yl)-2-morpholinooxazolo[5,4-c]pyridine]
1000 to 10000	Cn1cc(C2CCN(c3cnc4oc(N5CCOCC5)nc4c3)C2)c2cc(F)cnc21 (stereo not drawn) [Example 84, 6-(3-(5-fluoro-1-methyl-1H-pyrrolo[2,3-b]pyridin-3-yl)pyrrolidin-1-yl)-2-morpholinooxazolo[5,4-b]pyridine]
1000 to 10000	Cc1cccc2c(C3CCN(c4ccc5oc(N6CCOCC6)nc5c4)CC3)n[nH]c12 [Example 78, 5-(4-(7-methyl-1H-indazol-3-yl)piperidin-1-yl)-2-morpholinobenzo[d]oxazole]
< 1000	Cn1cc(C2CCN(c3ccc4oc(N5CCOCC5)nc4n3)C2)c2cc(F)cnc21 (stereo not drawn) [Example 90, 5-(3-(5-fluoro-1-methyl-1H-pyrrolo[2,3-b]pyridin-3-yl)pyrrolidin-1-yl)-2-morpholinooxazolo[4,5-b]pyridine]
1000 to 10000	Cn1cc(C2CCN(c3ccc4oc(N5CCOCC5)nc4c3)CC2)c2cccnc21 [Example 21, 5-(4-(1-methyl-1H-pyrrolo[2,3-b]pyridin-3-yl)piperidin-1-yl)-2-morpholinobenzo[d]oxazole]
1000 to 10000	Cn1cc(-c2ccc3oc(N4CCOCC4)nc3c2)c2cc(F)cnc21 [Example 3, 5-(5-fluoro-1-methyl-1H-pyrrolo[2,3-b]pyridin-3-yl)-2-morpholinobenzo[d]oxazole]
1000 to 10000	COC1CCN(c2nc3cc(N4CCC(c5cn(C)c6ncc(F)cc56)C4)ccc3o2)CC1 (stereo not drawn) [Example 96, 5-(3-(5-fluoro-1-methyl-1H-pyrrolo[2,3-b]pyridin-3-yl)pyrrolidin-1-yl)-2-(4-methoxypiperidin-1-yl)benzo[d]oxazole]
< 1000	Cn1cc(C2CCN(c3ccc4nc(N5CCOCC5)sc4c3)C2)c2cc(F)cnc21 (stereo not drawn) [Example 83, 4-(6-(3-(5-fluoro-1-methyl-1H-pyrrolo[2,3-b]pyridin-3-yl)pyrrolidin-1-yl)benzo[d]thiazol-2-yl)morpholine]
1000 to 10000	c1ccc2c(C3CCN(c4ccc5oc(N6CCOCC6)nc5c4)C3)c[nH]c2c1 (stereo not drawn) [Example 39, 5-(3-(1H-indol-3-yl)pyrrolidin-1-yl)-2-morpholinobenzo[d]oxazole]
< 1000	Cn1cc(C2CCN(c3ccc4nc(N5CCOCC5)oc4c3)C2)c2cc(F)cnc21 (stereo not drawn) [Example 89, 6-(3-(5-fluoro-1-methyl-1H-pyrrolo[2,3-b]pyridin-3-yl)pyrrolidin-1-yl)-2-morpholinobenzo[d]oxazole]
1000 to 10000	COC1CCN(c2nc3cc(N4CCC(c5cn(C)c6ncc(F)cc56)C4)ccc3o2)CC1 (stereo not drawn) [Example 97, 5-(3-(5-fluoro-1-methyl-1H-pyrrolo[2,3-b]pyridin-3-yl)pyrrolidin-1-yl)-2-(4-methoxypiperidin-1-yl)benzo[d]oxazole]
1000 to 10000	c1ccn2c(C3CCN(c4ccc5oc(N6CCOCC6)nc5c4)CC3)cnc2c1 [Example 25, 5-(4-(imidazo[1,2-a]pyridin-3-yl)piperidin-1-yl)-2-morpholinobenzo[d]oxazole]
1000 to 10000	Cn1cc(C2CCN(c3ccc4sc(N5CCOCC5)nc4c3)C2)c2cc(F)cnc21 (stereo not drawn) [Example 95, 4-(5-(3-(5-fluoro-1-methyl-1H-pyrrolo[2,3-b]pyridin-3-yl)pyrrolidin-1-yl)benzo[d]thiazol-2-yl)morpholine]
1000 to 10000	Cn1cc(C2CCN(c3ccc4oc(N5CCOCC5)nc4c3)CC2)c2ccccc21 [Example 68, 5-(4-(1-methyl-1H-indol-3-yl)piperidin-1-yl)-2-morpholinobenzo[d]oxazole]
1000 to 10000	Cc1ccc2[nH]nc(C3CCN(c4ccc5oc(N6CCOCC6)nc5c4)CC3)c2c1 [Example 76, 5-(4-(5-methyl-1H-indazol-3-yl)piperidin-1-yl)-2-morpholinobenzo[d]oxazole]
1000 to 10000	Fc1ccc2c(C3CCN(c4ccc5oc(N6CCOCC6)nc5c4)CC3)n[nH]c2c1 [Example 74, 5-(4-(6-fluoro-1H-indazol-3-yl)piperidin-1-yl)-2-morpholinobenzo[d]oxazole]
< 1000	Cn1cc(C2CCN(c3ccc4nc(N5CCOCC5)oc4c3)C2)c2cc(F)cnc21 (stereo not drawn) [Example 88, 6-(3-(5-fluoro-1-methyl-1H-pyrrolo[2,3-b]pyridin-3-yl)pyrrolidin-1-yl)-2-morpholinobenzo[d]oxazole]
1000 to 10000	Cn1nc(C2CCN(c3ccc4oc(N5CCOCC5)nc4c3)CC2)c2cccnc21 [Example 31, 5-(4-(1-methyl-1H-pyrazolo[3,4-b]pyridin-3-yl)piperidin-1-yl)-2-morpholinobenzo[d]oxazole]
1000 to 10000	Fc1ccc2[nH]nc(C3CCN(c4ccc5oc(N6CCOCC6)nc5c4)CC3)c2c1 [Example 61, 5-(4-(5-fluoro-1H-indazol-3-yl)piperidin-1-yl)-2-morpholinobenzo[d]oxazole]

More lines, now with the values behind:

Structure (SMILES)	EC50 [nM]
Fc1cccc2[nH]nc(C3CCN(c4ccc5oc(N6CCOCC6)nc5c4)CC3)c12 [Example 73, 5-(4-(4-fluoro-1H-indazol-3-yl)piperidin-1-yl)-2-morpholinobenzo[d]oxazole]	1000 to 10000
c1ccc2c(C3CCN(c4cc5nc(N6CCOCC6)oc5cn4)CC3)n[nH]c2c1 [Example 45, 6-(4-(1H-indazol-3-yl)piperidin-1-yl)-2-morpholinooxazolo[5,4-c]pyridine]	1000 to 10000
c1ccc2c(-c3ccn(-c4ccc5oc(N6CCOCC6)nc5c4)n3)c[nH]c2c1 [Example 11, 5-(3-(1H-indol-3-yl)-1H-pyrazol-1-yl)-2-morpholinobenzo[d]oxazole]	< 1000
C(#Cc1c[nH]c2ccccc12)c1ccc2oc(N3CCOCC3)nc2c1 [Example 6, 5-((1H-indol-3-yl)ethynyl)-2-morpholinobenzo[d]oxazole]	1000 to 10000
c1ccc2c(C3CCN(c4cnc5nc(N6CCOCC6)sc5c4)CC3)c[nH]c2c1 [Example 28, 4-(6-(4-(1H-indol-3-yl)piperidin-1-yl)thiazolo[4,5-b]pyridin-2-yl)morpholine]	< 1000
O=C(Nc1ccc2oc(N3CCOCC3)nc2c1)c1c[nH]c2ncccc12 [Example 13, N-(2-morpholinobenzo[d]oxazol-5-yl)-1H-pyrrolo[2,3-b]pyridine-3-carboxamide]	< 1000
c1ccc2c(C3CCN(c4cc5oc(N6CCOCC6)nc5cn4)CC3)n[nH]c2c1 [Example 72, 6-(4-(1H-indazol-3-yl)piperidin-1-yl)-2-morpholinooxazolo[4,5-c]pyridine]	10000 to 50000
COc1cccc2c(C3CCN(c4ccc5oc(N6CCOCC6)nc5c4)CC3)n[nH]c12 [Example 92, 5-(4-(7-methoxy-1H-indazol-3-yl)piperidin-1-yl)-2-morpholinobenzo[d]oxazole]	1000 to 10000
C(#Cc1n[nH]c2ccccc12)c1ccc2oc(N3CCOCC3)nc2c1 [Example 5, 5-((1H-indazol-3-yl)ethynyl)-2-morpholinobenzo[d]oxazole]	< 1000
c1ccc2c(C3CCN(c4ccc5nc(N6CCOCC6)sc5n4)CC3)n[nH]c2c1 [Example 106, 4-(5-(4-(1H-indazol-3-yl)piperidin-1-yl)thiazolo[5,4-b]pyridin-2-yl)morpholine]	1000 to 10000
c1ccc2c(N3CCN(c4ccc5oc(N6CCOCC6)nc5c4)CC3)n[nH]c2c1 [Example 79, 5-(4-(1H-indazol-3-yl)piperazin-1-yl)-2-morpholinobenzo[d]oxazole]	< 1000
c1ccc2c(-c3cnn(-c4ccc5oc(N6CCOCC6)nc5c4)c3)n[nH]c2c1 [Example 8, 5-(4-(1H-indazol-3-yl)-1H-pyrazol-1-yl)-2-morpholinobenzo[d]oxazole]	< 1000
c1ccc2c(C3CCN(c4cnc5oc(N6CCOCC6)nc5c4)CC3)n[nH]c2c1 [Example 49, 6-(4-(1H-indazol-3-yl)piperidin-1-yl)-2-morpholinooxazolo[5,4-b]pyridine]	10000 to 50000
c1ccc2c(-c3ccc4oc(N5CCOCC5)nc4c3)n[nH]c2c1 [Example 4, 5-(1H-indazol-3-yl)-2-morpholinobenzo[d]oxazole]	< 1000
C1=C(c2c[nH]c3ccccc23)CCN(c2ccc3oc(N4CCOCC4)nc3c2)C1 [Example 107, 5-(4-(1H-indol-3-yl)-3,6-dihydropyridin-1(2H)-yl)-2-morpholinobenzo[d]oxazole]	< 1000

Same assay, conditions: flTau disaggregation EC50, ThT fluorescence; 60 nM flTau aggregates, 30 minutes at RT

Structure (SMILES)	EC50 [nM]
Cn1cc(C2CCN(c3ccc4oc(N5CC6CC(C5)O6)nc4c3)C2)c2cc(F)cnc21 (stereo not drawn) [Example 98, 3-(5-(3-(5-fluoro-1-methyl-1H-pyrrolo[2,3-b]pyridin-3-yl)pyrrolidin-1-yl)benzo[d]oxazol-2-yl)-6-oxa-3-azabicyclo[3.1.1]heptane]	1000 to 10000

Same assay, conditions: read-out: flTau disaggregation EC50; ThT fluorescence; 60 nM flTau aggregates, 30 minutes at RT

Structure (SMILES)	EC50 [nM]
Cn1cc(C2CCN(c3ccc4oc(N5CC6CC(C5)O6)nc4c3)C2)c2cc(F)cnc21 (stereo not drawn) [Example 99, 3-(5-(3-(5-fluoro-1-methyl-1H-pyrrolo[2,3-b]pyridin-3-yl)pyrrolidin-1-yl)benzo[d]oxazol-2-yl)-6-oxa-3-azabicyclo[3.1.1]heptane]	1000 to 10000
